IC50 data for 19 compounds are collected here from US4668514A, “Penicillin derivatives” (Taiho Pharmaceutical Company Limited, priority 1983, dated 1987).

The structures appear in SMILES notation.

In this assay the target is penicillinase (β-lactamase) derived from Bacillus sp. The assay can be described thus: β-lactamase inhibitory activity measured by microiodometry using penicillin G as substrate. Format: biochemical. As to conditions: read-out: 50% Inhibitory Concentration. The method, then:
Test for β-lactamase inhibitory activity
The inhibitory activity against penicillinase (β-lactamase) derived from Bacillus sp. was measured by microiodometry Tanpakushitsu Kakusan Koso (Protein Nucleic Acid Enzyme), vol. 23, No. 5, pp 391 to 400 (1978) using penicillin G as a substrate.
As to `CCOC(=O)c1nnn(C[C@@]2(C)[C@H](C(=O)O)N3C(=O)C[C@H]3S2(=O)=O)c1-c1ccccc1` [Compound 44, sodium 2β-(4-ethoxycarbonyl-5-phenyl-1,2,3-triazol-1-yl)methyl-2α-methylpenam-3α-carboxylate 1,1-dioxide], the IC50 turned out to be 400 nM.

As for `C[C@]1(Cn2nncc2-c2ccccc2)[C@H](C(=O)O)N2C(=O)C[C@H]2S1(=O)=O` [Compound 15, sodium 2β-(5-phenyl-1,2,3-triazol-1-yl)methyl-2α-methylpenam-3α-carboxylate 1,1-dioxide], the IC50 came to 280 nM.

As to `C[C@]1(Cn2cc(C(F)(F)F)nn2)[C@H](C(=O)O)N2C(=O)C[C@H]2S1(=O)=O` [Compound 19, sodium 2α-methylpenam-2β-(4-trifluoromethyl-1,2,3-triazol-1-yl)methyl-3α-carboxylate 1,1-dioxide], the IC50 came to 240 nM.

With `C[C@]1(Cn2cc(-c3ccccc3)nn2)[C@H](C(=O)O)N2C(=O)C[C@H]2S1(=O)=O` [Compound 14, sodium 2β-(4-phenyl-1,2,3-triazol-1-yl)methyl-2α-methylpenam-3α-carboxylate 1,1-dioxide], the IC50 came to 40 nM.

As for `CCCCc1cn(C[C@@]2(C)[C@H](C(=O)O)N3C(=O)C[C@H]3S2(=O)=O)nn1` [Compound 8, sodium 2β-(4-n-butyl-1,2,3-triazol-1-yl)methyl-2α-methylpenam-3α-carboxylate 1,1-dioxide], the IC50 was 230 nM.

Regarding `C[C@]1(Cn2nnc(COCc3ccccc3)c2COCc2ccccc2)[C@H](C(=O)O)N2C(=O)C[C@H]2S1(=O)=O` [Compound 49, 2β-(4,5-dibenzyloxymethyl-1,2,3-triazol-1-yl)methyl-2α-methylpenam-3α-carboxylic acid 1,1-dioxide], the IC50 was 1500 nM.

`CCCCc1cnnn1C[C@@]1(C)[C@H](C(=O)O)N2C(=O)C[C@H]2S1(=O)=O` [Compound 9, sodium 2β-(5-n-butyl-1,2,3-triazol-1-yl)methyl-2α-methylpenam-3α-carboxylate 1,1-dioxide]: the IC50 is 650 nM.

For the compound `C[C@]1(Cn2nnc(CO)c2CO)[C@H](C(=O)O)N2C(=O)C[C@H]2S1(=O)=O` [Compound 50, sodium 2β-(4,5-dihydroxymethyl-1,2,3-triazol-1-yl)methyl-2α-methylpenam-3α-carboxylate 1,1-dioxide], the IC50 came to 2000 nM.

For `COCc1cnnn1C[C@@]1(C)[C@H](C(=O)O)N2C(=O)C[C@H]2S1(=O)=O` [Compound 22, sodium 2β-(5-methoxymethyl-1,2,3-triazol-1-yl)methyl-2α-methylpenam-3α-carboxylate 1,1-dioxide], the IC50 was 1800 nM.

With `CC(=O)c1cn(C[C@@]2(C)[C@H](C(=O)OCc3ccc([N+](=O)[O-])cc3)N3C(=O)C[C@H]3S2(=O)=O)nn1` [Compound 32, p-nitrobenzyl 2β-(4-acetyl-1,2,3-triazol-1-yl)methyl-2α-methylpenam-3α-carboxylate 1,1-dioxide], the IC50 is 120 nM.

For the compound `C[C@]1(Cn2nnc(-c3ccccc3)c2-c2ccccc2)[C@H](C(=O)O)N2C(=O)C[C@H]2S1(=O)=O` [Compound 17, 2β-(4,5-diphenyl-1,2,3-triazol-1-yl)methyl-2α-methylpenam-3α-carboxylic acid 1,1-dioxide], the IC50 came out at 270 nM.

On to `CCOC(=O)c1c(-c2ccccc2)nnn1C[C@@]1(C)[C@H](C(=O)O)N2C(=O)C[C@H]2S1(=O)=O` [Compound 45, sodium 2β-(5-ethoxycarbonyl-4-phenyl-1,2,3-triazol-1-yl)methyl-2α-methylpenam-3α-carboxylate 1,1-dioxide], for which the IC50 was 100 nM.

Take `CCCCc1nnn(C[C@@]2(C)[C@H](C(=O)O)N3C(=O)C[C@H]3S2(=O)=O)c1CCCC` [Compound 5, sodium 2β-(4,5-di-n-butyl-1,2,3-triazol-1-yl)methyl-2α-methylpenam-3α-carboxylate 1,1-dioxide]: the IC50 was determined as 3000 nM.

Regarding `C[C@]1(Cn2cc(N)nn2)[C@H](C(=O)O)N2C(=O)C[C@H]2S1(=O)=O` [Compound 55, 2β-(4-amino-1,2,3-triazol-1-yl)methyl-2α-methylpenam-3α-carboxylic acid 1,1-dioxide], the IC50 was determined as 700 nM.

For `Cc1cnnn1C[C@@]1(C)[C@H](C(=O)O)N2C(=O)C[C@H]2S1(=O)=O` [Compound 11, sodium 2β-(5-methyl-1,2,3-triazol-1-yl)methyl-2α-methylpenam-3α-carboxylate 1,1-dioxide], the IC50 came out at 240 nM.

As for `CC(=O)OCc1nnn(C[C@@]2(C)[C@H](C(=O)O)N3C(=O)C[C@H]3S2(=O)=O)c1COC(C)=O` [Compound 47, sodium-2β-(4,5-diacetoxymethyl-1,2,3-triazol-1-yl)methyl-2α-methylpenam-3α-carboxylate 1,1-dioxide], the IC50 was 2500 nM.

As to `Cc1nnn(C[C@@]2(C)[C@H](C(=O)O)N3C(=O)C[C@H]3S2(=O)=O)c1C` [Compound 2, sodium 2β-(4,5-dimethyl-1,2,3-triazol-1-yl)methyl-2α-methylpenam-3α-carboxylate 1,1-dioxide], the IC50 amounted to 80 nM.

For the compound `C[C@]1(Cn2nnc(C(N)=O)c2C(N)=O)[C@H](C(=O)O)N2C(=O)C[C@H]2S1(=O)=O` [Compound 31, sodium 2β-(4,5-dicarbamoyl-1,2,3-triazol-1-yl)methyl-2α-methylpenam-3α-carboxylate 1,1-dioxide], the IC50 was found to be 130 nM.

`CCNC(=O)c1cn(C[C@@]2(C)[C@H](C(=O)O)N3C(=O)C[C@H]3S2(=O)=O)nn1` [Compound 29, sodium 2β-(4-ethylcarbamoyl-1,2,3-triazol-1-yl)methyl-2α-methylpenam-3α-carboxylate 1,1-dioxide]: the IC50 was 20 nM.
